Laboratory results from patent EP3789378A1, “PIPERIDINES OR PIPERIDONES SUBSTITUTED WITH UREA AND HETEROARYL” (Grünenthal GmbH, priority 2019, dated 2021).
Structures can show the parent of a compound that is named as a salt.

molecular target: T1, h FPR2 (Homo sapiens, UniProt P25090); experiment: Agonistic activity in hFPR2-Aq-CHO cells (FLIPR Calcium 5 fluorescence assay); type: cell-based; details: 11 point half log dilution, final assay concentration from 10µM
T1 construct: expressed in transfected cells
T1 sequence (P25090 1-351): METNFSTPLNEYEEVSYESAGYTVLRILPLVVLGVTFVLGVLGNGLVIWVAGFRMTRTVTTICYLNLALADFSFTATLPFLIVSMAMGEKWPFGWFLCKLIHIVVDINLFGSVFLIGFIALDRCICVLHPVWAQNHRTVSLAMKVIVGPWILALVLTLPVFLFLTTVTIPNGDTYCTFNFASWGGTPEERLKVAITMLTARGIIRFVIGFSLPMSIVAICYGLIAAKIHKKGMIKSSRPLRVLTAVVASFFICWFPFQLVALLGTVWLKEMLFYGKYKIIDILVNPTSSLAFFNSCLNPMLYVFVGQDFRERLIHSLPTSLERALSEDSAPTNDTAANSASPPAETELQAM
How it was run: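 EC50 reflects the compound-evoked rise in Calcium 5 fluorescence over basal, recorded for 5 min on FLIPR and compared with no-compound wells. Dye-loaded hFPR2-Aq-CHO cells received half-log dilutions from 10 µM to 100 pM final in pH 7.4 HBSS buffer.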

SMILES | EC50
COc1ccc([C@@H]2CN(Cc3cc(C)on3)CC[C@H]2NC(=O)Nc2ccc(Cl)cc2)nc1 (single isomer, unassigned) [Ex-29, trans-1-(4-chlorophenyl)-3-[3-(5-methoxypyridin-2-yl)-1-[(5-methyl-1,2-oxazol-3-yl)methyl]piperidin-4-yl]urea] | 11 nM
COc1ccc([C@@H]2CN(Cc3cc(C)on3)CC[C@H]2NC(=O)Nc2ccc(Cl)cc2)nc1 (single isomer, unassigned) [Ex-30, trans-1-(4-chlorophenyl)-3-[3-(5-methoxypyridin-2-yl)-1-[(5-methyl-1,2-oxazol-3-yl)methyl]piperidin-4-yl]urea] | 0.09 nM
COc1ccc([C@@H]2CN(CC(F)F)CC[C@H]2NC(=O)Nc2ccc(Cl)cc2)nc1 (single isomer, unassigned) [Ex-35, trans-1-(4-chlorophenyl)-3-[1-(2,2-difluoroethyl)-3-(5-methoxypyridin-2-yl)piperidin-4-yl]urea] | 0.06 nM
COc1ccc([C@@H]2CN(CC(F)F)CC[C@H]2NC(=O)Nc2ccc(Cl)cc2)nc1 (single isomer, unassigned) [Ex-36, trans-1-(4-chlorophenyl)-3-[1-(2,2-difluoroethyl)-3-(5-methoxypyridin-2-yl)piperidin-4-yl]urea] | 85 nM
COc1ccc([C@@H]2CN(Cc3cc(C(F)(F)F)on3)CC[C@H]2NC(=O)Nc2ccc(Cl)cc2)nc1 (single isomer, unassigned) [Ex-37, trans-1-(4-chlorophenyl)-3-[3-(5-methoxypyridin-2-yl)-1-{[5-(trifluoromethyl)-1,2-oxazol-3-yl]methyl}piperidin-4-yl]urea] | 0.13 nM
COc1ccc([C@@H]2CN(Cc3cc(C(F)(F)F)on3)CC[C@H]2NC(=O)Nc2ccc(Cl)cc2)nc1 (single isomer, unassigned) [Ex-38, trans-1-(4-chlorophenyl)-3-[3-(5-methoxypyridin-2-yl)-1-{[5-(trifluoromethyl)-1,2-oxazol-3-yl]methyl}piperidin-4-yl]urea] | 54 nM
COc1ccc([C@@H]2CN(Cc3ccn(C)n3)CC[C@H]2NC(=O)Nc2ccc(Cl)cc2)nc1 (single isomer, unassigned) [Ex-39, trans-1-(4-chlorophenyl)-3-[3-(5-methoxypyridin-2-yl)-1-[(1-methyl-1H-pyrazol-3-yl)methyl]piperidin-4-yl]urea] | 0.3 nM
COc1ccc([C@@H]2CN(Cc3ccn(S(C)(=O)=O)n3)CC[C@H]2NC(=O)Nc2ccc(Cl)cc2)nc1 (single isomer, unassigned) [Ex-42, trans-1-(4-chlorophenyl)-3-[1-[(1-methanesulfonyl-1H-pyrazol-3-yl)methyl]-3-(5-methoxypyridin-2-yl)piperidin-4-yl]urea] | 1 nM
COc1ccc([C@@H]2CN(Cc3ccn(S(C)(=O)=O)n3)CC[C@H]2NC(=O)Nc2ccc(Cl)cc2)nc1 (single isomer, unassigned) [Ex-43, trans-1-(4-chlorophenyl)-3-[1-[(1-methanesulfonyl-1H-pyrazol-3-yl)methyl]-3-(5-methoxypyridin-2-yl)piperidin-4-yl]urea] | 0.03 nM
Cc1cc(CN2CC[C@@H](NC(=O)Nc3ccc(Cl)cc3)[C@H](c3ccc(Cl)s3)C2)no1 (single isomer, unassigned) [Ex-44, trans-1-(4-chlorophenyl)-3-[3-(5-chlorothiophen-2-yl)-1-[(5-methyl-1,2-oxazol-3-yl)methyl]piperidin-4-yl]urea] | 1 nM
O=C(Nc1ccc(Cl)cc1)N[C@@H]1CCN(Cc2ncccn2)C[C@H]1c1ccc(Cl)s1 (single isomer, unassigned) [Ex-46, trans-1-(4-chlorophenyl)-3-[3-(5-chlorothiophen-2-yl)-1-(pyrimidin-2-ylmethyl)piperidin-4-yl]urea] | 0.4 nM
O=C(Nc1ccc(Cl)cc1)N[C@@H]1CCN(Cc2ncccn2)C[C@H]1c1ccc(Cl)s1 (single isomer, unassigned) [Ex-47, trans-1-(4-chlorophenyl)-3-[3-(5-chlorothiophen-2-yl)-1-(pyrimidin-2-ylmethyl)piperidin-4-yl]urea] | 65 nM
Cc1cc(NC(=O)N[C@@H]2CCN(Cc3cc(C)on3)C[C@H]2c2ccc(Cl)s2)sn1 (single isomer, unassigned) [Ex-48, trans-1-[3-(5-chlorothiophen-2-yl)-1-[(5-methyl-1,2-oxazol-3-yl)methyl]piperidin-4-yl]-3-(3-methyl-1,2-thiazol-5-yl)urea] | 72 nM
Cc1cc(NC(=O)N[C@@H]2CCN(Cc3cc(C)on3)C[C@H]2c2ccc(Cl)s2)sn1 (single isomer, unassigned) [Ex-49, trans-1-[3-(5-chlorothiophen-2-yl)-1-[(5-methyl-1,2-oxazol-3-yl)methyl]piperidin-4-yl]-3-(3-methyl-1,2-thiazol-5-yl)urea] | 0.3 nM
COc1ccc([C@@H]2CN(CC3CCOCC3)CC[C@H]2NC(=O)Nc2ccc(Cl)cc2)nc1 (single isomer, unassigned) [Ex-51, trans-1-(4-chlorophenyl)-3-[3-(5-methoxypyridin-2-yl)-1-(oxan-4-ylmethyl)piperidin-4-yl]urea] | 0.4 nM
COc1ccc([C@@H]2CN(C(=O)c3cnccc3C)CC[C@H]2NC(=O)Nc2ccc(Cl)cc2)nc1 (single isomer, unassigned) [Ex-52, trans-1-(4-chlorophenyl)-3-[3-(5-methoxypyridin-2-yl)-1-[(4-methylpyridin-3-yl)carbonyl]piperidin-4-yl]urea] | 0.5 nM
COc1ccc([C@@H]2CN(C(=O)c3cnccc3C)CC[C@H]2NC(=O)Nc2ccc(Cl)cc2)nc1 (single isomer, unassigned) [Ex-53, trans-1-(4-chlorophenyl)-3-[3-(5-methoxypyridin-2-yl)-1-[(4-methylpyridin-3-yl)carbonyl]piperidin-4-yl]urea] | 50 nM
COc1ccc([C@@H]2CN(C(=O)c3ccc(C)nc3)CC[C@H]2NC(=O)Nc2ccc(Cl)cc2)nc1 (single isomer, unassigned) [Ex-54, trans-1-(4-chlorophenyl)-3-[3-(5-methoxypyridin-2-yl)-1-[(6-methylpyridin-3-yl)carbonyl]piperidin-4-yl]urea] | 0.6 nM
COc1ccc([C@@H]2CN(C(=O)c3ccc(C)nc3)CC[C@H]2NC(=O)Nc2ccc(Cl)cc2)nc1 (single isomer, unassigned) [Ex-55, trans-1-(4-chlorophenyl)-3-[3-(5-methoxypyridin-2-yl)-1-[(6-methylpyridin-3-yl)carbonyl]piperidin-4-yl]urea] | 40 nM

Further lines, results first:

EC50 | SMILES
0.9 nM | CS(=O)(=O)n1ccc(CN2CC[C@@H](NC(=O)Nc3ccccc3)[C@H](c3ccc(Cl)s3)C2)n1 (single isomer, unassigned) [Ex-56, trans-1-(-3-(5-chlorothiophen-2-yl)-1-((1-(methylsulfonyl)-1H-pyrazol-3-yl)methyl)piperidin-4-yl)-3-phenylurea]
55 nM | CS(=O)(=O)n1ccc(CN2CC[C@@H](NC(=O)Nc3ccccc3)[C@H](c3ccc(Cl)s3)C2)n1 (single isomer, unassigned) [Ex-57, trans-1-(-3-(5-chlorothiophen-2-yl)-1-((1-(methylsulfonyl)-1H-pyrazol-3-yl)methyl)piperidin-4-yl)-3-phenylurea]
0.4 nM | COc1ccc([C@@H]2CN(Cc3ccn(S(C)(=O)=O)n3)CC[C@H]2NC(=O)Nc2ccccc2)nc1 (single isomer, unassigned) [Ex-58, trans-3-[1-[(1-methanesulfonyl-1H-pyrazol-3-yl)methyl]-3-(5-methoxypyridin-2-yl)piperidin-4-yl]-1-phenylurea]
0.2 nM | Cc1cc(NC(=O)N[C@@H]2CCN(Cc3ncccn3)C[C@H]2c2ccc(Cl)s2)sn1 (single isomer, unassigned) [Ex-62, trans-1-[3-(5-chlorothiophen-2-yl)-1-(pyrimidin-2-ylmethyl)piperidin-4-yl]-3-(3-methyl-1,2-thiazol-5-yl)urea]
0.06 nM | CS(=O)(=O)n1ccc(CN2CC[C@@H](NC(=O)Nc3ccc(Cl)cc3)[C@H](c3ccc(Cl)s3)C2)n1 (single isomer, unassigned) [Ex-77, trans-1-(4-chlorophenyl)-3-[3-(5-chlorothiophen-2-yl)-1-[(1-methanesulfonyl-1H-pyrazol-3-yl)methyl]piperidin-4-yl]urea]
52 nM | CS(=O)(=O)n1ccc(CN2CC[C@@H](NC(=O)Nc3ccc(Cl)cc3)[C@H](c3ccc(Cl)s3)C2)n1 (single isomer, unassigned) [Ex-78, trans-1-(4-chlorophenyl)-3-[3-(5-chlorothiophen-2-yl)-1-[(1-methanesulfonyl-1H-pyrazol-3-yl)methyl]piperidin-4-yl]urea]
37 nM | COc1ccc([C@@H]2CN(CC3CCNCC3)CC[C@H]2NC(=O)Nc2ccc(Cl)cc2)nc1 (single isomer, unassigned) [Ex-82, trans-1-(4-chlorophenyl)-3-(3-(5-methoxypyridin-2-yl)-1-(piperidin-4-ylmethyl)piperidin-4-yl)urea]
0.2 nM | O=C(Nc1ccc(Cl)cc1)N[C@@H]1CCN(CC2CCNCC2)C[C@H]1c1ccc(Cl)s1 (single isomer, unassigned) [Ex-83, trans-1-(4-chlorophenyl)-3-[3-(5-chlorothiophen-2-yl)-1-(piperidin-4-ylmethyl)piperidin-4-yl]urea dihydrochloride]
33 nM | O=C(Nc1ccc(Cl)cc1)N[C@@H]1CCN(CC2CCNCC2)C[C@H]1c1ccc(Cl)s1 (single isomer, unassigned) [Ex-84, trans-1-(4-chlorophenyl)-3-[3-(5-chlorothiophen-2-yl)-1-(piperidin-4-ylmethyl)piperidin-4-yl]urea dihydrochloride]
